{
  "source": "patent US20100081162A1",
  "about": "“METHOD OF EVALUATING ANTIWRINKLE SUBSTANCE AND METHOD OF ASSESSING THE SKIN” (POLA CHEMICAL INDUSTRIES INC., priority 2007, published 2010)",
  "key": {"[1]": {"test_system": "type-I collagen gene (COL1A1, COL1A2)", "test": "Effect of farrerol on expression amount of type-I collagen gene (real-time PCR)", "type": "cell-based", "conditions": "normal human fibroblasts, 5 days", "procedure": "(§1) In the normal human fibroblasts cultivated in a culture solution with or without farrerol for 5 days, the expression amounts of the integrin gene and the type-I collagen gene as a main component of dermal collagen were evaluated by the real-time PCR. The procedure followed the procedure in Example 1 except for the used primer. It should be noted that the following QuantiTect (registered trademark) Primer Assays was used as a primer. […] Specifically, the expression amount of the β1 protein gene increased by a factor of about 1.9, the expression amount of the α2 protein gene increased by a factor of about 2.6, and the expression amount of the α5 protein gene increased by a factor of about 1.7."}, "integrin gene": {"test_system": "integrin gene", "test": "Effect of farrerol on expression amount of integrin gene (real-time PCR)", "type": "cell-based", "conditions": "normal human fibroblasts, 5 days", "procedure": "as §1"}, "α5 protein gene (ITGA5)": {"test_system": "α5 protein gene (ITGA5)", "test": "Effect of farrerol on expression amount of α5 protein gene (real-time PCR)", "type": "cell-based", "conditions": "normal human fibroblasts, 5 days", "procedure": "as §1"}, "collagen fiber bundles": {"test_system": "collagen fiber bundles", "test": "Tightness in collagen fiber bundles in collagen gel with NHDF in the presence of heparin (SEM)", "type": "cell-based, human"}, "β1 protein gene (ITGB1)": {"test_system": "β1 protein gene (ITGB1)", "test": "Effect of farrerol on expression amount of β1 protein gene (real-time PCR)", "type": "cell-based", "conditions": "normal human fibroblasts, 5 days", "procedure": "as §1"}, "α2 protein gene (ITGA2)": {"test_system": "α2 protein gene (ITGA2)", "test": "Effect of farrerol on expression amount of α2 protein gene (real-time PCR)", "type": "cell-based", "conditions": "normal human fibroblasts, 5 days", "procedure": "as §1"}},
  "data": [
    {"compound": "Cc1c(O)c(C)c2c(c1O)C(=O)C[C@@H](c1ccc(O)cc1)O2", "note": "[farrerol]", "values": [
      {"measurement": "expression amount of the type-I collagen gene", "setting": "[1]", "value": "not significantly increased"},
      {"measurement": "increase in the expression amount of the integrin gene (factor, with vs without farrerol)", "setting": "integrin gene", "value": "≥ 1.5", "unit": "factor"},
      {"measurement": "increase in the expression amount of the α5 protein gene (factor)", "setting": "α5 protein gene (ITGA5)", "value": "about 1.7 factor"},
      {"measurement": "effect on inhibition of tightness of collagen fiber bundles due to heparin", "setting": "collagen fiber bundles; NHDF in collagen gel, 0.1% or 1% heparin, farrerol 10^−6% or 10^−7% at final, 5 days, SEM", "value": "suppressed inhibition of tightness of collagen fiber bundles due to heparin"},
      {"measurement": "increase in the expression amount of the β1 protein gene (factor)", "setting": "β1 protein gene (ITGB1)", "value": "about 1.9 factor"},
      {"measurement": "increase in the expression amount of the α2 protein gene (factor)", "setting": "α2 protein gene (ITGA2)", "value": "about 2.6 factor"}
    ]},
    {"compound": "Heparin", "values": [
      {"measurement": "effect on tightness in collagen fiber bundles", "setting": "collagen fiber bundles; heparin alone", "value": "inhibitory effect"}
    ]}
  ]
}
